Where two headings read alike, the source gives them in different places.
Tested on: Direct Seeded Rice and weed species
Assay: Postemergence herbicidal activity in direct seeded rice, visual rating after 20-22 days and probit GR20/GR50/GR80/GR90 (Table 14)
Type: in vivo
Details: for pest or weed control at 17.5 g/ha / pest or weed control at 35 g/ha / pest or weed control at 70 g/ha: post-emergence, 504 h, postemergence; for pest or weed control at 17.5 g/ha: 17.5 g ai/ha; for pest or weed control at 35 g/ha: 35 g ai/ha; for pest or weed control at 70 g/ha: 70 g ai/ha
Method in brief: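 Rice and weeds grown in loam–sand soil (pH about 8.1) in greenhouse to 2nd–3rd true leaf, then sprayed postemergence at 187 L/ha in acetone/DMSO with 1.25% (v/v) Agri-dex crop oil. Injury rated visually 0–100 after 20-22 days versus untreated plants; GR20, GR50, GR80, GR90 obtained by probit analysis across dose rates.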

[1] = BRAPP (broadleaf signalgrass, Brachiaria platyphylla), read-out: Visual Growth Reduction (%) 21 Days After Application BRAPP
[2] = CYPDI (small-flower flatsedge, Cyperus difformis), read-out: Visual Growth Reduction (%) 21 Days After Application CYPDI
[3] = CYPES (yellow nutsedge, Cyperus esculentus), read-out: Visual Growth Reduction (%) 21 Days After Application CYPES
[4] = CYPIR (rice flatsedge, Cyperus iria), read-out: Visual Growth Reduction (%) 21 Days After Application CYPIR
[5] = DIGSA (large crabgrass, Digitaria sanguinalis), read-out: Visual Growth Reduction (%) 21 Days After Application DIGSA
[6] = ECHCG (barnyardgrass, Echinochloa crus-galli), read-out: Visual Growth Reduction (%) 21 Days After Application ECHCG
[7] = ECHCO (junglerice, Echinochloa colonum), read-out: Visual Growth Reduction (%) 21 Days After Application ECHCO
[8] = LEFCH (Chinese sprangletop, Leptochloa chinensis), read-out: Visual Growth Reduction (%) 21 Days After Application LEFCH
[9] = ORYSJ (Oryza sativa, rice crop), read-out: Visual Growth Reduction (%) 21 Days After Application ORYSJ
[10] = ORYSK (Oryza sativa, rice crop), read-out: Visual Growth Reduction (%) 21 Days After Application ORYSK
[11] = SCPJU (Japanese bulrush, Schoenoplectus juncoides Roxb.), read-out: Visual Growth Reduction (%) 21 Days After Application SCPJU
[12] = SEBEX (hemp sesbania, Sesbania exaltata), read-out: Visual Growth Reduction (%) 21 Days After Application SEBEX

COC(=O)c1nc(-c2ccc3c(c2F)OC(F)(F)O3)c(F)c(N)c1Cl [Compound 10]
GR50 BRAPP (BRAPP (Brachiaria platyphylla), probit analysis, dose for 50 percent growth reduction): 7 g ai/ha | GR80 BRAPP (BRAPP (Brachiaria platyphylla), probit analysis, dose for 80 percent growth reduction): 16 g ai/ha | GR90 BRAPP (BRAPP (Brachiaria platyphylla), probit analysis, dose for 90 percent growth reduction): 24 g ai/ha | GR50 CYPDI (CYPDI (Cyperus difformis), probit analysis, dose for 50 percent growth reduction): 4 g ai/ha | GR80 CYPDI (CYPDI (Cyperus difformis), probit analysis, dose for 80 percent growth reduction): 8 g ai/ha | GR90 CYPDI (CYPDI (Cyperus difformis), probit analysis, dose for 90 percent growth reduction): 10 g ai/ha | GR50 CYPES (CYPES (Cyperus esculentus), probit analysis, dose for 50 percent growth reduction): <18 g ai/ha | GR80 CYPES (CYPES (Cyperus esculentus), probit analysis, dose for 80 percent growth reduction): <18 g ai/ha | GR90 CYPES (CYPES (Cyperus esculentus), probit analysis, dose for 90 percent growth reduction): <18 g ai/ha | GR50 CYPIR (CYPIR (Cyperus iria), probit analysis, dose for 50 percent growth reduction): 6 g ai/ha | GR80 CYPIR (CYPIR (Cyperus iria), probit analysis, dose for 80 percent growth reduction): 10 g ai/ha | GR90 CYPIR (CYPIR (Cyperus iria), probit analysis, dose for 90 percent growth reduction): 13 g ai/ha | GR50 DIGSA (DIGSA (Digitaria sanguinalis), probit analysis, dose for 50 percent growth reduction): 1 g ai/ha | GR80 DIGSA (DIGSA (Digitaria sanguinalis), probit analysis, dose for 80 percent growth reduction): 8 g ai/ha | GR90 DIGSA (DIGSA (Digitaria sanguinalis), probit analysis, dose for 90 percent growth reduction): 21 g ai/ha | GR50 ECHCG (ECHCG (Echinochloa crus-galli), probit analysis, dose for 50 percent growth reduction): 10 g ai/ha | GR80 ECHCG (ECHCG (Echinochloa crus-galli), probit analysis, dose for 80 percent growth reduction): 14 g ai/ha | GR90 ECHCG (ECHCG (Echinochloa crus-galli), probit analysis, dose for 90 percent growth reduction): 16 g ai/ha | GR50 ECHCO (ECHCO (Echinochloa colonum), probit analysis, dose for 50 percent growth reduction): 6 g ai/ha | GR80 ECHCO (ECHCO (Echinochloa colonum), probit analysis, dose for 80 percent growth reduction): 14 g ai/ha | GR90 ECHCO (ECHCO (Echinochloa colonum), probit analysis, dose for 90 percent growth reduction): 21 g ai/ha | GR50 LEFCH (LEFCH (Leptochloa chinensis), probit analysis, dose for 50 percent growth reduction): 12 g ai/ha | GR80 LEFCH (LEFCH (Leptochloa chinensis), probit analysis, dose for 80 percent growth reduction): 20 g ai/ha | GR90 LEFCH (LEFCH (Leptochloa chinensis), probit analysis, dose for 90 percent growth reduction): 27 g ai/ha | GR20 ORYSJ (ORYSJ (Oryza sativa, rice crop), probit analysis, dose for 20 percent growth reduction): 14 g ai/ha | GR20 ORYSK (ORYSK (Oryza sativa, rice crop), probit analysis, dose for 20 percent growth reduction): 20 g ai/ha | GR50 SCPJU (SCPJU (Schoenoplectus juncoides Roxb.), probit analysis, dose for 50 percent growth reduction): 0.0002 g ai/ha | GR80 SCPJU (SCPJU (Schoenoplectus juncoides Roxb.), probit analysis, dose for 80 percent growth reduction): 0.0207 g ai/ha | GR90 SCPJU (SCPJU (Schoenoplectus juncoides Roxb.), probit analysis, dose for 90 percent growth reduction): 0.268 g ai/ha | GR50 SEBEX (SEBEX (Sesbania exaltata), probit analysis, dose for 50 percent growth reduction): 3 g ai/ha | GR80 SEBEX (SEBEX (Sesbania exaltata), probit analysis, dose for 80 percent growth reduction): 8 g ai/ha | GR90 SEBEX (SEBEX (Sesbania exaltata), probit analysis, dose for 90 percent growth reduction): 13 g ai/ha | pest or weed control at 17.5 g/ha [1]: 85 to 94% | pest or weed control at 35 g/ha [1]: 95 to 100% | pest or weed control at 70 g/ha [1]: 95 to 100% | pest or weed control at 17.5 g/ha [2]: 95 to 100% | pest or weed control at 35 g/ha [2]: 95 to 100% | pest or weed control at 70 g/ha [2]: 95 to 100% | pest or weed control at 17.5 g/ha [3]: 95 to 100% | pest or weed control at 35 g/ha [3]: 95 to 100% | pest or weed control at 70 g/ha [3]: 95 to 100% | pest or weed control at 17.5 g/ha [4]: 95 to 100% | pest or weed control at 35 g/ha [4]: 95 to 100% | pest or weed control at 70 g/ha [4]: 95 to 100% | pest or weed control at 17.5 g/ha [5]: 95 to 100% | pest or weed control at 35 g/ha [5]: 85 to 94% | pest or weed control at 70 g/ha [5]: 95 to 100% | pest or weed control at 17.5 g/ha [6]: 95 to 100% | pest or weed control at 35 g/ha [6]: 95 to 100% | pest or weed control at 70 g/ha [6]: 95 to 100% | pest or weed control at 17.5 g/ha [7]: 85 to 94% | pest or weed control at 35 g/ha [7]: 95 to 100% | pest or weed control at 70 g/ha [7]: 95 to 100% | pest or weed control at 17.5 g/ha [8]: 60 to 74% | pest or weed control at 35 g/ha [8]: 95 to 100% | pest or weed control at 70 g/ha [8]: 95 to 100% | pest or weed control at 17.5 g/ha [9]: 0 to 29% | pest or weed control at 35 g/ha [9]: 60 to 74% | pest or weed control at 70 g/ha [9]: 75 to 84% | pest or weed control at 17.5 g/ha [10]: 0 to 29% | pest or weed control at 35 g/ha [10]: 45 to 59% | pest or weed control at 70 g/ha [10]: 75 to 84% | pest or weed control at 17.5 g/ha [11]: 95 to 100% | pest or weed control at 35 g/ha [11]: 95 to 100% | pest or weed control at 70 g/ha [11]: 95 to 100% | pest or weed control at 17.5 g/ha [12]: 95 to 100% | pest or weed control at 35 g/ha [12]: 95 to 100% | pest or weed control at 70 g/ha [12]: 95 to 100%

From patent US9149038B2, “4-amino-6-(heterocyclic)picolinates and 6-amino-2-(heterocyclic)pyrimidine-4-carboxylates and their use as herbicides” (Dow AgroSciences LLC, priority 2013, dated 2015)
